Reference: patent US20210315476A1, “Depth-independent method for in-vivo drug release monitoring and quantification based on magnetic particle imaging” (The Board of Trustees of the Leland Stanford Junior …, priority 2018, published 2021)

Tested on: MDA-MB-231 tumors
Test: TUNEL assay for tumor apoptosis
Type: in vivo, nude mice
Conditions: tumors harvested 48 h after intratumoral injection, N=3 mice per condition
Protocol: Furthermore, we evaluated the therapeutic efficacy of Fe3O4@PLGA-DOX to the tumor. Tumor tissues of the orthotopic breast cancer mice were harvested after injection of Fe3O4@PLGA-DOX for 48 h and then sectioned for TUNEL apoptosis assay. […] Meanwhile, the fluorescence signals can also be observed in the tissue section.
MDA-MB-231 tumors on nude mice were harvested and encapsulated in Tissue-Tek® O.C.T. and then frozen. Tumor tissues embedded in were sectioned by cryostat with a thickness of 2 μm for each slice. tissue slices were treated with Click-iT™ Plus TUNEL Assay (Alexa Fluor™ 488 dye) kit for apoptosis detection. Fluorescence images of tumor tissues were captured by fluorescent microscopy. Alexa Fluor™ 488 dye was excited by 488 nm laser and the emission collecting window was 500-540 nm. The signal of DOX were excited by 488 nm laser and emission was collected at 580-630 nm.

## COc1cccc2c1C(=O)c1c(O)c3c(c(O)c1C2=O)C[C@@](O)(C(=O)CO)C[C@@H]3O[C@H]1C[C@H](N)[C@H](O)[C@H](C)O1 [DOX, doxorubicin]
  apoptosis in tumor section (TUNEL): exhibited apoptosis
